The record followed here is article PMC11490992 (Microbial Cell Factories, 2024).

The assay deals with α-glucosidase. Nature of the assay: in vitro α-glucosidase inhibition assay, triplicate, serial dilutions. Format: biochemical.

Structures are written as SMILES. ≈ marks a conversion by molar mass, not a printed value.

`CC(C)=CCc1ccc2c(CC#N)c[nH]c2c1` [compound 2, 3-cyanomethyl-6-prenylindole]: the “IC50 (μg/mL)^a” value is 86.21 µg/mL (≈ 384 µM).
